From patent US8703796B2, “3H-imidazo [4, 5-B] pyridine-6-carboxamides as anti-inflammatory agents” (Boehringer Ingelheim International GmbH, priority 2008, dated 2014)

Target: T1, recombinant human mPGES-1 (Homo sapiens, UniProt O14684)
T1 construct: made in house; host or cells: Rosetta E. coli (microsomal/membrane fraction)
T1 sequence (O14684 1-152): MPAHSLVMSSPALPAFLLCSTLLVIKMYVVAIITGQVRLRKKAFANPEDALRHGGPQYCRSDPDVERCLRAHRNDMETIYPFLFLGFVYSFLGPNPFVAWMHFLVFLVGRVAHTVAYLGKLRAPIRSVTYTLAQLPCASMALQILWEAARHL
Experiment: mPGES-1 inhibition, HTRF detection of PGE2
Format: biochemical
In short: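 PGE2 formed from PGH2 in one minute by E. coli-expressed microsomal enzyme (pH 7.4, 2.5 mM GSH) was measured by competitive HTRF against a synthetic PGE2 standard curve. Compounds were preincubated 25 min at room temperature.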

SMILES	inhibition at 10 µM [%]	inhibition at 1 µM [%]
O=C(NCc1ccccc1C(F)(F)F)c1cc2nc(Nc3c(Cl)cc(F)cc3Cl)[nH]c2nc1OCC(F)F [Example 824, 2-(2,6-Dichloro-4-fluoro-phenylamino)-5-(2,2-difluoro-ethoxy)-N-(2-trifluoromethyl-benzyl)-3H-imidazo[4,5-b]pyridine-6-carboxamide]	100	
O=C(NCc1ncccc1C(F)(F)F)c1cc2nc(Nc3c(Cl)cncc3Cl)[nH]c2nc1OCC(F)(F)F [Example 855, 2-(3,5-Dichloro-pyridin-4-ylamino)-5-(2,2,2-trifluoro-ethoxy)-N-((3-trifluoromethyl-pyridin-2-yl)-methyl)-3H-imidazo[4,5-b]pyridine-6-carboxamide]	100	
CCCCCC[C@@H](C)NC(=O)c1cnc2c(c1)nc(Nc1c(Cl)cccc1Cl)n2C [Example 411, (R)-2-(2,6-Dichlorophenylamino)-3-methyl-N-(oct-2-yl)-3H-imidazo[4,5-b]pyridine-6-carboxamide]	100	
COc1nc2c(cc1C(=O)NCc1ccccc1C(F)(F)F)nc(Nc1c(Cl)cccc1Cl)n2C [Example 861, 2-(2,6-Dichloro-phenylamino)-5-methoxy-N-(2-trifluoromethyl-benzyl)-3-methyl-3H-imidazo[4,5-b]pyridine-6-carboxamide]	100	
O=C(NCC(F)(F)C(F)(F)C(F)(F)C(F)(F)F)c1cc2nc(Nc3c(Cl)cncc3Cl)[nH]c2nc1OCC(F)(F)F [Example 854, 2-(3,5-Dichloro-pyridin-4-ylamino)-5-(2,2,2-trifluoro-ethoxy)-N-(2,2,3,3,4,4,5,5,5-nonafluoro-pentyl)-3H-imidazo[4,5-b]pyridine-6-carboxamide]	96	
Cn1c(Nc2c(F)cccc2C(F)(F)F)nc2cc(C(=O)Nc3ccc(Br)cc3)c(OCC(F)F)nc21 [Example 771, N-(4-Bromophenyl)-2-(2-fluoro-6-trifluoromethylphenylamino)-5-(2,2-difluoro-ethoxy)-3-methyl-3H-imidazo[4,5-b]pyridine-6-carboxamide]		100
COCCOc1nc2[nH]c(Nc3c(Cl)cncc3Cl)nc2cc1C(=O)N[C@H]1CC[C@H](C(F)(F)F)CC1 [Example 866, 2-(3,5-Dichloro-pyridin-4-ylamino)-5-(2-methoxy-ethoxy)-N-(trans-4-trifluoromethyl-cyclohexyl)-3H-imidazo[4,5-b]pyridine-6-carboxamide]	100	
Cn1c(Nc2c(Cl)cncc2Cl)nc2cc(C(=O)N[C@H]3CC[C@H](C(F)(F)F)CC3)c(OCCF)nc21 [Example 833, 2-(3,5-Dichloro-pyridin-4-ylamino)-5-(2-fluoro-ethoxy)-N-(trans-4-trifluoromethyl-cyclohexyl)-3-methyl-3H-imidazo[4,5-b]pyridine-6-carboxamide]	100	
O=C(N[C@H]1CC[C@H](C(F)(F)F)CC1)c1cc2nc(Nc3c(F)cccc3C(F)(F)F)[nH]c2nc1OCC(F)F [Example 781, 2-(2-Fluoro-6-trifluoromethyl-phenylamino)-5-(2,2-difluoro-ethoxy)-N-(trans-4-trifluoromethyl-cyclohexyl)-3H-imidazo[4,5-b]pyridine-6-carboxamide]		99
Cc1cc(C)c(Nc2nc3cc(C(=O)N[C@H]4CC[C@H](C(F)(F)F)CC4)c(OCC(F)F)nc3[nH]2)c(Cl)n1 [Example 793, 2-(2-Chloro-4,6-dimethyl-pyridin-3-ylamino)-5-(2,2-difluoro-ethoxy)-N-(trans-4-trifluoromethyl-cyclohexyl)-3H-imidazo[4,5-b]pyridine-6-carboxamide]	94	
O=C(NCc1ccccc1C(F)(F)F)c1cc2nc(Nc3c(Cl)cncc3Cl)[nH]c2nc1OC1CCOC1 (stereo not drawn) [Example 790, 2-(3,5-Dichloro-pyridin-4-ylamino)-5-(tetrahydrofuran-3-yl-oxy)-N-((2-trifluoromethyl-phenyl)-methyl)-3H-imidazo[4,5-b]pyridine-6-carboxamide]	97	
Cn1c(Nc2c(Cl)cccc2C(F)(F)F)nc2cc(C(=O)N[C@H]3CC[C@H](C(F)(F)F)CC3)c(OCC(F)F)nc21 [Example 777, 2-(2-Chloro-6-trifluoromethyl-phenylamino)-5-(2,2-difluoro-ethoxy)-N-(trans-4-trifluoromethyl-cyclohexyl)-3-methyl-3H-imidazo[4,5-b]pyridine-6-carboxamide]		98
O=C(NCC(F)(F)C(F)(F)C(F)(F)C(F)(F)F)c1cc2nc(Nc3c(Cl)cc(F)cc3Cl)[nH]c2nc1OCC(F)F [Example 825, 2-(2,6-Dichloro-4-fluoro-phenylamino)-5-(2,2-difluoro-ethoxy)-N-(2,2,3,3,4,4,5,5,5-nonafluoropentyl)-3H-imidazo[4,5-b]pyridine-6-carboxamide]	98	
Cn1c(Nc2c(Cl)cc(F)cc2Cl)nc2cc(C(=O)Nc3cc(C(F)(F)F)ccn3)c(OCC(F)F)nc21 [Example 817, 2-(2,6-Dichloro-4-fluoro-phenylamino)-5-(2,2-difluoro-ethoxy)-N-(4-trifluoromethyl-pyridin-2-yl)-3-methyl-3H-imidazo[4,5-b]pyridine-6-carboxamide]	96	
CCCC[C@H](C)NC(=O)c1cnc2c(c1)nc(Nc1c(Cl)cccc1Cl)n2C [Example 527, (S)-2-(2,6-Dichlorophenylamino)-N-(hex-2-yl)-3-methyl-3H-imidazo[4,5-b]pyridine-6-carboxamide]	96	
Cn1c(Nc2c(Cl)cncc2Cl)nc2cc(C(=O)NCc3ccccc3C(F)(F)F)c(OCC(F)F)nc21 [Example 839, 2-(3,5-Dichloro-pyridin-4-ylamino)-5-(2,2-difluoro-ethoxy)-N-(2-trifluoromethyl-benzyl)-3-methyl-3H-imidazo[4,5-b]pyridine-6-carboxamide]	98	
CCCCCCNC(=O)c1cnc2c(c1)nc(Nc1c(Cl)cccc1Cl)n2C [Example 439, 2-(2,6-Dichlorophenylamino)-N-hexyl-3-methyl-3H-imidazo[4,5-b]pyridine-6-carboxamide]	91	
Cn1c(Nc2c(Cl)cccc2Cl)nc2cc(C(=O)N[C@H]3CC[C@H](C)CC3)cnc21 [Example 453, 2-(2,6-Dichlorophenylamino)-3-methyl-N-((1r,4r)-4-methylcyclohexyl)-3H-imidazo[4,5-b]pyridine-6-carboxamide]	98	
CC(=O)N(C)CCOc1nc2[nH]c(Nc3c(Cl)cncc3Cl)nc2cc1C(=O)NCC(F)(F)C(F)(F)C(F)(F)C(F)(F)F [Example 809, 2-(3,5-Dichloro-pyridin-4-ylamino)-5-(2-(acetyl-methyl-amino)-ethoxy)-N-(2,2,3,3,4,4,5,5,5-nonafluoro-pentyl)-3H-imidazo[4,5-b]pyridine-6-carboxamide]	100	
COc1nc2c(cc1C(=O)NCc1ncccc1C(F)(F)F)nc(Nc1c(Cl)cccc1Cl)n2C [Example 860, 2-(2,6-Dichloro-phenylamino)-5-methoxy-N-((3-trifluoromethyl-pyridin-2-yl)-methyl)-3-methyl-3H-imidazo[4,5-b]pyridine-6-carboxamide]	100	
COCCOc1nc2[nH]c(Nc3c(Cl)cncc3Cl)nc2cc1C(=O)Nc1cc(C(F)(F)F)ccn1 [Example 808, 2-(3,5-Dichloro-pyridin-4-ylamino)-5-(2-methoxy-ethoxy)-N-(4-trifluoromethyl-pyridin-2-yl)-3H-imidazo[4,5-b]pyridine-6-carboxamide]	100	
O=C(N[C@H]1CC[C@H](C(F)(F)F)CC1)c1cc2nc(Nc3c(Cl)cncc3Cl)[nH]c2nc1OCC(F)(F)F [Example 859, 2-(3,5-Dichloro-pyridin-4-ylamino)-5-(2,2,2-trifluoro-ethoxy)-N-(trans-4-trifluoromethyl-cyclohexyl)-3H-imidazo[4,5-b]pyridine-6-carboxamide]	89	
Cc1ccnc(Cl)c1Nc1nc2cc(C(=O)N[C@H]3CC[C@H](C(F)(F)F)CC3)c(OCC(F)F)nc2[nH]1 [Example 797, 2-(2-Chloro-4-methyl-pyridin-3-ylamino)-5-(2,2-difluoro-ethoxy)-N-(trans-4-trifluoromethyl-cyclohexyl)-3H-imidazo[4,5-b]pyridine-6-carboxamide]	100	
CC(C)[C@H]1CC[C@H](NC(=O)c2cnc3c(c2)nc(Nc2c(Cl)cccc2Cl)n3C)CC1 [Example 400, 2-(2,6-Dichlorophenylamino)-N-((1r,4r)-4-isopropylcyclohexyl)-3-methyl-3H-imidazo[4,5-b]pyridine-6-carboxamide]	97	
O=C(Nc1cc(C(F)(F)F)ccn1)c1cc2nc(Nc3c(Cl)cc(F)cc3Cl)[nH]c2nc1OCC(F)(F)F [Example 819, 2-(2,6-Dichloro-4-fluoro-phenylamino)-5-(2,2,2-trifluoro-ethoxy)-N-(4-trifluoromethyl-pyridin-2-yl)-3H-imidazo[4,5-b]pyridine-6-carboxamide]	96	
CCOc1nc2[nH]c(Nc3c(Cl)cncc3Cl)nc2cc1C(=O)NCc1ncccc1C(F)(F)F [Example 843, 2-(3,5-Dichloro-pyridin-4-ylamino)-5-ethoxy-N-((3-trifluoromethyl-pyridin-2-yl)-methyl)-3H-imidazo[4,5-b]pyridine-6-carboxamide]	99	
Cn1c(Nc2c(Cl)cc(F)cc2Cl)nc2cc(C(=O)NCc3ccccc3C(F)(F)F)c(OCC(F)F)nc21 [Example 871, 2-(2,6-Dichloro-4-fluoro-phenylamino)-5-(2,2-difluoro-ethoxy)-N-(2-trifluoromethyl-benzyl)-3-methyl-3H-imidazo[4,5-b]pyridine-6-carboxamide]	100	
